Structures are written as SMILES.

The target in the test is T1, glucokinase (GK) (Homo sapiens, UniProt P35557).
T1 construct: I.D. No. 1 corresponds to residues 12-465 of glucokinase; made in house; host or cells: E. coli DH10b-T1r
T1 sequence (P35557 with tags, fused parts or gaps isoform P35557-2): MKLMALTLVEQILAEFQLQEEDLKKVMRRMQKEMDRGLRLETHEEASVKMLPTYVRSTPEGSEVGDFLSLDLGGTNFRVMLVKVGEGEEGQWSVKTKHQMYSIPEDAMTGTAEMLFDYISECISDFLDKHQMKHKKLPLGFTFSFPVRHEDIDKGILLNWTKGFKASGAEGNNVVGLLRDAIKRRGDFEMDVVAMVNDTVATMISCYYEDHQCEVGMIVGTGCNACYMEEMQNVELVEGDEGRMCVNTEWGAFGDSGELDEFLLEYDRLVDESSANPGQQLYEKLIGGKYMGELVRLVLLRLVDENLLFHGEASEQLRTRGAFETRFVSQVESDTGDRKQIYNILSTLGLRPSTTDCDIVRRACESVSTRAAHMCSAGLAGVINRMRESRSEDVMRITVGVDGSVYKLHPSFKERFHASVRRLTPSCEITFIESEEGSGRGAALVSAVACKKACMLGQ
Put plainly: enzymatic glucokinase activity assay (ATP consumption, KinaseGlo luminescence). It counts as biochemical. Conditions: recombinant GK residues 12-465; 5 μM ATP, 5 mM Glucose; Kact = concentration that displays 50% of the maximal increase in GK activity; read-out: pKact. An outline of the steps:
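Recombinant human glucokinase expressed in E. coli was run in 25 mM Hepes pH 7.2 with 10 mM MgCl2, 1 mM DTT, 5 μM ATP, 5 mM glucose and 2% DMSO for 60 min at room temperature. Remaining ATP was read by KinaseGlo luminescence; pKact came from non-linear curve fits.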
For `Cc1cc(S(=O)(=O)C2CC2)cc(=O)n1C(CC1CCOCC1)C(=O)Nc1ncc(Cl)s1` (stereo not drawn) [Example 157, N-(5-chlorothiazol-2-yl)-2-(4-(cyclopropylsulfonyl)-6-methyl-2-oxopyridin-1(2H)-yl)-3-(tetrahydro-2H-pyran-4-yl)propanamide], the EC50 was in the range of 1.58 to 15.8 µM. Under `Cc1cc(S(=O)(=O)c2cccc(F)c2)cc(=O)n1C(CC1CCOCC1)C(=O)Nc1ncc(Cl)s1` (stereo not drawn) [Example 158, N-(5-chlorothiazol-2-yl)-2-(4-(3-fluorophenylsulfonyl)-6-methyl-2-oxopyridin-1(2H)-yl)-3-(tetrahydro-2H-pyran-4-yl)propanamide] stands < 1.58 µM; under `Cc1cc(S(=O)(=O)c2cccc(F)c2)cc(=O)n1C(CC1CCOCC1)C(=O)Nc1ncc(F)s1` (stereo not drawn) [Example 159, 2-(4-(3-fluorophenylsulfonyl)-6-methyl-2-oxopyridin-1(2H)-yl)-N-(5-fluorothiazol-2-yl)-3-(tetrahydro-2H-pyran-4-yl)propanamide], 1.58 to 15.8 µM; under `Cc1cc(S(=O)(=O)C2CCS(=O)(=O)CC2)cc(=O)n1C(CC1CCCCC1)C(=O)Nc1ncc(Cl)s1` (stereo not drawn) [Example 160, N-(5-chlorothiazol-2-yl)-2-(4-(1,1-dioxotetrahydrothiopyran-4-ylsulfonyl)-6-methyl-2-oxopyndin-1(2H)-yl)-3-cyclohexylpropanamide], 1.58 to 15.8 µM. `Cc1cc(S(=O)(=O)C2CCS(=O)(=O)CC2)cc(=O)n1C(CC1CCCCC1)C(=O)Nc1ncc(F)s1` (stereo not drawn) [Example 161, N-(5-fluorothiazol-2-yl)-2-(4-(1,1-dioxotetrahydrothiopyran-4-ylsulfonyl)-6-methyl-2-oxopyridin-1(2H)-yl)-3-cyclohexyipropanamide]: the EC50 lay within 1.58 to 15.8 µM. Consider `Cc1cc(S(=O)(=O)C2CC2)cc(=O)n1[C@@H](CC1CCCC1)C(=O)Nc1ncc(F)s1` [Example 162, (S)-3-cyclopentyl-2-(4-(cyclopropylsulfonyl)-6-methyl-2-oxopyridin-1(2H)-yl)-N-(5-fluorothiazol-2-yl)propanamide], for which the EC50 is < 1.58 µM. Under `Cc1cc(S(=O)(=O)C2CC2)cc(=O)n1[C@H](CC1CCCC1)C(=O)Nc1ncc(F)s1` [Example 163, (R)-3-cyclopentyl-2-(4-(cyclopropylsulfonyl)-6-methyl-2-oxopyridin-1(2H)-yl)-N-(5-fluorothiazol-2-yl)propanamide] stands > 15.8 µM; under `Cc1cc(S(=O)(=O)C2CCCC2)cc(=O)n1[C@H](CC1CCOCC1)C(=O)Nc1ccc(F)cn1` [Example 164, (R)-2-(4-(cyclopentylsulfonyl)-6-methyl-2-oxopyridin-1(2H)-yl)-N-(5-fluoropyridin-2-yl)-3-(tetrahydro-2H-pyran-4-yl)propanamide], > 15.8 µM; under `Cc1cc(S(=O)(=O)C2CCCC2)cc(=O)n1[C@@H](CC1CCOCC1)C(=O)Nc1ccc(F)cn1` [Example 165, (S)-2-(4-(cyclopentylsulfonyl)-6-methyl-2-oxopyridin-1(2H)-yl)-N-(5-fluoropyridin-2-yl)-3-(tetrahydro-2H-pyran-4-yl)propanamide], 1.58 to 15.8 µM. As to `Cc1cc(S(=O)(=O)C2CCCC2)cc(=O)n1[C@@H](CC1CCOCC1)C(=O)Nc1ccc(Cl)cn1` [Example 166, (S)-N-(5-chloropyridin-2-yl)-2-(4-(cyclopentylsulfonyl)-6-methyl-2-oxopyridin-1(2H)-yl)-3-(tetrahydro-2H-pyran-4-yl)propanamide], the EC50 is < 1.58 µM. The figure for `Cc1cc(S(=O)(=O)C2CCCC2)cc(=O)n1[C@H](CC1CCOCC1)C(=O)Nc1ccc(Cl)cn1` [Example 167, (R)-N-(5-chloropyridin-2-yl)-2-(4-(cyclopentylsulfonyl)-6-methyl-2-oxopyridin-1(2H)-yl)-3-(tetrahydro-2H-pyran-4-yl)propanamide] is > 15.8 µM; for `Cc1cc(S(=O)(=O)c2cccc(Cl)c2)cc(=O)n1[C@@H](CC1CCOCC1)C(=O)Nc1ncc(F)s1` [Example 168, (S)2-(4-(3-chlorophenylsulfonyl)-6-methyl-2-oxopyridin-1(2H)-yl)-N-(5-fluorothiazol-2-yl)-3-(tetrahydro-2H-pyran-4-yl)propanamide] it is < 1.58 µM; for `Cc1cc(S(=O)(=O)c2cccc(Cl)c2)cc(=O)n1[C@H](CC1CCOCC1)C(=O)Nc1ncc(F)s1` [Example 169, (R)-2-(4-(3-chlorophenylsulfonyl)-6-methyl-2-oxopyridin-1(2H)-yl)-N-(5-fluorothiazol-2-yl)-3-(tetrahydro-2H-pyran-4-yl)propanamide] it is > 15.8 µM. Under `Cc1cc(S(=O)(=O)C2CC2)cc(=O)n1[C@H](CC1CCCC1)C(=O)Nc1cnccn1` [Example 170, (R)-3-cyclopentyl-2-(4-(cyclopropylsulfonyl)-6-methyl-2-oxopyridin-1(2H)-yl)-N-(pyrazin-2-yl)propanamide] stands > 15.8 µM.

As to `Cc1cc(S(=O)(=O)C2CC2)cc(=O)n1[C@@H](CC1CCCC1)C(=O)Nc1cnccn1` [Example 171, (S)-3-cyclopentyl-2-(4-(cyclopropylsulfonyl)-6-methyl-2-oxopyridin-1(2H)-yl)-N-(pyrazin-2-yl)propanamide], the EC50 was 1.58 to 15.8 µM. In the case of `Cc1cc(S(=O)(=O)C2CC2)cc(=O)n1[C@@H](CC1CCOCC1)C(=O)Nc1ncc(Cl)s1` [Example 172, (S)-N-(5-chlorothiazol-2-yl)-2-(4-(cyclopropylsulfonyl)-6-methyl-2-oxopyridin-1(2H)-yl)-3-(tetrahydro-2H-pyran-4-yl)propanamide], the EC50 is < 1.58 µM. The figure for `Cc1cc(S(=O)(=O)C2CC2)cc(=O)n1[C@H](CC1CCOCC1)C(=O)Nc1ncc(Cl)s1` [Example 173, (R)-N-(5-chlorothiazol-2-yl)-2-(4-(cyclopropylsulfonyl)-6-methyl-2-oxopyridin-1(2H)-yl)-3-(tetrahydro-2H-pyran-4-yl)propanamide] is > 15.8 µM; for `Cc1cc(S(=O)(=O)C2CCOCC2)cc(=O)n1C(CC1CCCC1)C(=O)Nc1ncc(Cl)s1` (stereo not drawn) [Example 174, N-(5-chlorothiazol-2-yl)-3-cyclopentyl-2-(6-methyl-2-oxo-4-(tetrahydro-2H-pyran-4-ylsulfonyl)pyridin-1(2H)-yl)propanamide] it is 1.58 to 15.8 µM. Under `Cc1cc(S(=O)(=O)C2CCOCC2)cc(=O)n1C(CC1CCCC1)C(=O)Nc1ncc(F)s1` (stereo not drawn) [Example 175, 3-cyclopentyl-N-(5-fluorothiazol-2-yl)-2-(6-methyl-2-oxo-4-(tetrahydro-2H-pyran-4-ylsulfonyl)pyridin-1(2H)-yl)propanamide] stands 1.58 to 15.8 µM; under `Cc1cc(S(=O)(=O)C2CCCC2)cc(=O)n1C(CC1CCOCC1)C(=O)Nc1cnccn1` (stereo not drawn) [Example 177, 2-(4-(cyclopentylsulfonyl)-6-methyl-2-oxopyridin-1(2H)-yl)-N-(pyrazin-2-yl)-3-(tetrahydro-2H-pyran-4-yl)propanamide], > 15.8 µM; under `Cc1cc(S(=O)(=O)C2CC2)cc(=O)n1C(CC1CCCC1)C(=O)Nc1ncc(Cl)s1` (stereo not drawn) [Example 178, N-(5-chlorothiazol-2-yl)-3-cyclopentyl-2-(4-(cyclopropylsulfonyl)-6-methyl-2-oxopyridin-1(2H)-yl)propanamide], < 1.58 µM. The figure for `O=C(Nc1ncc(Cl)s1)C(CC1CCOCC1)n1cc(Cl)c(S(=O)(=O)C2CC2)cc1=O` (stereo not drawn) [Example 179, 2-(5-chloro-4-(cyclopropylsulfonyl)-2-oxopyridin-1(2H)-yl)-N-(5-chlorothiazol-2-yl)-3-(tetrahydro-2H-pyran-4-yl)propanamide] is 1.58 to 15.8 µM. With `Cc1cc(S(=O)(=O)C2CC2)cc(=O)n1[C@@H](CC1CCCC1)C(=O)Nc1ccc(C(N)=O)cn1` [Example 180, (S)-6-(3-cyclopentyl-2-(4-(cyclopropylsulfonyl)-6-methyl-2-oxopyridin-1(2H)-yl)propanamido)nicotinamide], the EC50 lay in the range of 1.58 to 15.8 µM. Take `Cc1cc(S(=O)(=O)C2CCCC2)cc(=O)n1[C@H](CC1CCOCC1)C(=O)Nc1ccc(C(N)=O)cn1` [Example 181, (R)-6-(2-(4-(cyclopentylsulfonyl)-6-methyl-2-oxopyridin-1(2H)-yl)-3-(tetrahydro-2H-pyran-4-yl)propanamido)nicotinamide]: the EC50 was > 15.8 µM.

In the case of `Cc1cc(S(=O)(=O)C2CCCC2)cc(=O)n1[C@@H](CC1CCOCC1)C(=O)Nc1ccc(C(N)=O)cn1` [Example 182, (S)-6-(2-(4-(cyclopentylsulfonyl)-6-methyl-2-oxopyridin-1(2H)-yl)-3-(tetrahydro-2H-pyran-4-yl)propanamido)nicotinamide], the EC50 was 1.58 to 15.8 µM. The figure for `Cc1cc(S(=O)(=O)C2CC2)cc(=O)n1[C@@H](CC1CCCC1)C(=O)Nc1ncc(Cl)s1` [Example 183, (S)-N-(5-chlorothiazol-2-yl)-3-cyclopentyl-2-(4-(cyclopropylsulfonyl)-6-methyl-2-oxopyridin-1(2H)-yl)propanamide] is < 1.58 µM; for `O=C(Nc1ncc(Cl)s1)C(CC1CCOCC1)n1cc(Cl)c(S(=O)(=O)C2CCCC2)cc1=O` (stereo not drawn) [Example 185, 2-(5-chloro-4-(cyclopentylsulfonyl)-2-oxopyridin-1(2H)-yl)-N-(5-chlorothiazol-2-yl)-3-(tetrahydro-2H-pyran-4-yl)propanamide] it is 1.58 to 15.8 µM.

The values are drawn from patent US8163779B2, “Glucokinase activators” (Takeda San Diego, Inc., priority 2006, dated 2012).
